IC50 data for six molecules are collected here from BindingDB's records for doi:10.1021/jm00167a032 (Sankyo, 1990).

The structures appear in SMILES notation.

This assay deals with Arachidonate 5-lipoxygenase (Cavia porcellus). The experiment in a line: Evaluated for inhibition of the formation and release of 5-lipoxygenase in guinea pig peritoneal PMNL.

What is called IC50 is the concentration that gives 50% inhibition. High values mean lower potency, low ones higher potency. Take `Cc1c(C)c2c(c(C)c1O)SCO2`: the IC50 is 290 nM.
In turn, `Cc1c(C)c2c(c(C)c1O)SC(CCC(N)=O)O2` (stereo unspecified) registered an IC50 of 520 nM.
As to `Cc1c(C)c2c(c(C)c1O)SC(c1ccccc1)O2` (stereo unspecified), it took 71 nM to reach half-maximal inhibition (IC50).
For `CCCCCCCC1Oc2c(C)c(C)c(O)c(C)c2S1` (stereo unspecified) the value was 220 nM.
Turning to `CCCCC1Oc2c(C)c(C)c(O)c(C)c2S1` (stereo unspecified), the IC50 is 59 nM.
On to `CCCC1Oc2c(C)c(C)c(O)c(C)c2S1` (stereo unspecified), for which the IC50 was found to be 25 nM.
